Measurements as given in paper PMC4096996 (Structure (London, England : 1993), 2013).
Values joined by “and” are separate entries in the source; they are usually repeats but may differ in a detail not shown here. Equal entries are not always repeated.

How the values were obtained:
AvGluR1 LBD [1] = molecular target: T1, AvGluR1 LBD (Adineta vaga, UniProt E9P5T5, INS567GT); assay: biochemical; type: binding; settings: for binding affinity: β-carbon branched amino acids
T1 sequence (E9P5T5 with tags, fused parts or gaps INS567GT): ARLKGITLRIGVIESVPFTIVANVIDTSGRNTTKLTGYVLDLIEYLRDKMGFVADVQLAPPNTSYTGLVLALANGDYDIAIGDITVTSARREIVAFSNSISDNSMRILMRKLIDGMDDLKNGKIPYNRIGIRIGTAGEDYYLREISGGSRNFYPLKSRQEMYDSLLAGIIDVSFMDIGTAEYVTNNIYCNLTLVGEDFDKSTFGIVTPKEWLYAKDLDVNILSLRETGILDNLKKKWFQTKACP

AvGluR1 [2] = settings: prior studies; ref Janovjak et al., 2011; cited from earlier work
AvGluR1 [3] = type: cell-based, Adineta vaga; settings: for time constant of onset of desensitization (Figure 2A traces): 2.8 mM alanine; for amplitude of response relative to glutamate: normalized to 60 μM glutamate in the same oocyte
AvGluR1 LBD [4] = molecular target: T1, AvGluR1 LBD; assay: Competitive displacement of 100 nM [3H] L-glutamate by 100 μM amino acids; type: binding; settings: 100 μM competing amino acid
AvGluR1 LBD [5] = molecular target: T1, AvGluR1 LBD; assay: Saturation binding of [3H] L-glutamate to AvGluR1 LBD apo protein
AvGluR1 LBD [6] = molecular target: T1, AvGluR1 LBD; assay: Competitive displacement of [3H] L-glutamate with NaCl substituted by HEPES; type: binding
GluR0 from Synechocystis = settings: read-out: Kd for glutamate, ref Chen et al., 1999; cited from earlier work
[7] = displacement of 100 nM [3H] L-Glu, NaCl buffer
[8] = Kd, displacement of 100 nM [3H] L-Glu, NaCl buffer
[9] = ligand applied at 300 times the Kd
[10] = Kd in Cl−, competitive displacement of [3H] L-glutamate, NaCl reaction buffer

In the case of `Cc1o[nH]c(=O)c1CC(N)C(=O)O` (stereo not shown) [AMPA], the Kd (AvGluR1 LBD [1]; [7]) is listed as 130 µM and the “activation of AvGluR1 (ligand activated ion currents)” value (“activation of AvGluR1” for short) (AvGluR1 [2]) is listed as “activation”.
`NC(CCCP(=O)(O)O)C(=O)O` (stereo not shown) [AP5] gave a Kd (AvGluR1 LBD [1]; [7]) of 530 µM.
Work on `N[C@H](CCC(=O)O)C(=O)O` [D-Glu] yielded a Kd (AvGluR1 LBD [1]; [7]) of 130 µM.
`O=[N+]([O-])c1cc2nc(O)c(O)nc2cc1[N+](=O)[O-]` [DNQX] showed a Kd (AvGluR1 LBD [1]; [7]) of 250 µM.
`CN[C@H](CC(=O)O)C(=O)O` [NMDA] showed a Kd (AvGluR1 LBD [1]; [7]) of 9900 µM.
For `C[C@H](C[C@H](N)C(=O)O)C(=O)O` [SYM2081, 2S,4R-4-methyl glutamate], the “fold lower affinity for AvGluR1” value (AvGluR1 LBD [1]; comparator not given) was 250 fold and the Kd (AvGluR1 LBD [1]; [7]) was 49.5 µM.
Work on `Cc1cn(C[C@H](N)C(=O)O)c(=O)n(Cc2ccsc2C(=O)O)c1=O` [UBP-310] yielded a Kd (AvGluR1 LBD [1]; [7]) of 160 µM.
For `C[C@H](N)C(=O)O` [alanine], the “time constant of onset of desensitization (Figure 2A traces)” value (AvGluR1 [3]; 60 μM glutamate) was 1.0 s.
Work on `NC(=O)C[C@H](N)C(=O)O` [asparagine] yielded a Kd (AvGluR1 LBD [1]; [8]) of 81 µM.
In the case of `N[C@@H](CC(=O)O)C(=O)O` [aspartate], the “effect on binding of 100 nM [3H] L-glutamate” value (AvGluR1 LBD [4]) is given as “abolished” and the “activation of AvGluR1” value (AvGluR1 [2]) is given as “activation”.
For `N[C@@H](CS)C(=O)O` [cysteine], the Kd (AvGluR1 LBD [1]; [8]) was 46 µM and the “amplitude of response relative to glutamate” value (AvGluR1 [3]; [9]) was 86 ± 8%.
With `N[C@@H](CCC(=O)O)C(=O)O` [glutamate, L-glutamate] the Kd (AvGluR1 LBD [5]) was 203 ± 18 nM, the “effect on binding of 100 nM [3H] L-glutamate” value (AvGluR1 LBD [4]) was “abolished” and the Kd (AvGluR1 LBD [1]; [10]) was 0.27 ± 0.02 µM. The Kd (AvGluR1 LBD [1]; Kd, sequence of Kd values, Figure 1C and Table S1) was 0.203 µM, the Kd (AvGluR1 LBD [6]) was 0.3 ± 0.04 µM and the 10-90% rise time (AvGluR1 [3]; 60 μM glutamate) was 240 ± 67 ms. For the same compound, the “time constant of desensitization (single exponential)” value (AvGluR1 [3]; 60 μM glutamate) was 626 ± 255 ms, the “time constant of onset of desensitization (Figure 2A traces)” value (AvGluR1 [3]; 60 μM glutamate) was 1.25 s and the inward current amplitude (AvGluR1 [3]; 60 μM glutamate, mean ± SD, n = 9) was 5.1 ± 1.4 μA. For the same compound, the “time constant of recovery from desensitization” value (AvGluR1 [3]; 60 μM glutamate, twin pulse protocol) was 26 s and 25.7 s, the “time constant of onset of desensitization” value (AvGluR1 [3]; 100 μM glutamate, wild type AvGluR1 control response (Figure 7D)) was 460 ms and the “extent of desensitization” value (AvGluR1 [3]; [9]) was “complete desensitization”. For the same compound, the Kd (GluR0 from Synechocystis) was 193 nM and the “activation of AvGluR1” value (AvGluR1 [2]) was “activation”.
`NC(=O)CC[C@H](N)C(=O)O` [glutamine] showed a Kd (AvGluR1 LBD [1]; [8]) of 37 µM.
With `CC[C@H](C)[C@H](N)C(=O)O` [isoleucine] the “binding affinity” value (AvGluR1 LBD [1]) was “low affinity”.
In the case of `C=C(C)[C@H]1CN[C@H](C(=O)O)[C@H]1CC(=O)O` [kainate], the Kd (AvGluR1 LBD [1]; [7]) is listed as 2700 µM and the “activation of AvGluR1” value (AvGluR1 [2]) is listed as “activation”.
`CSCC[C@H](N)C(=O)O` [methionine] gave a Kd (AvGluR1 LBD [1]; [10]) of 15.1 ± 2.5 µM, a Kd (AvGluR1 LBD [1]; [8]) of 15 µM and a Kd (AvGluR1 LBD [6]) of 270 ± 52 µM. For the same compound, the “amplitude of response relative to glutamate” value (AvGluR1 [3]; [9]) was 64 ± 7%.
In the case of `N[C@@H](Cc1ccccc1)C(=O)O` [phenylalanine], the “amplitude of response relative to glutamate” value (AvGluR1 [3]; [9]) is reported as 33 ± 6%.
`N[C@@H](Cn1oc(=O)[nH]c1=O)C(=O)O` [quisqualate] showed a Kd (AvGluR1 LBD [1]; [8]) of 39 µM.
For `N[C@@H](CO)C(=O)O` [serine], the “activation of AvGluR1” value (AvGluR1 [2]) is listed as “activation”.
For `C[C@@H](O)[C@H](N)C(=O)O` [threonine], the “binding affinity” value (AvGluR1 LBD [1]) was “low affinity”.
In the case of `CC(C)[C@H](N)C(=O)O` [valine], the “binding affinity” value (AvGluR1 LBD [1]) is reported as “low affinity”.
For concanavalin A, the “effect on AvGluR1 desensitization” value (AvGluR1 [3]; 0.5 mg/ml for 4 minutes) was “strongly attenuated”.
